Key:
NALM6 ADR cells = tested on: NALM6 ADR cells
Source text: Cells: NALM6 (ATCC) and NALM6 ADR (ATCC), B cell precursor lymphoblastic leukemia cell lines used in this study. NALM6 ADR is a multidrug resistant cell line derived from NALM6 cells.
Mice: Sixty-five 5-6-weeks-old female SCID-Beige mice (Charles River) were used in this study.
Inoculation-2×10^6 cells diluted in PBS:Matrigel (1:1) were subcutaneously injected using a 27G insulin syringe into fifty anesthetized 5-6-week-old female SCID-Beige mice under sterile conditions.
NALM6 ADR subcutaneous tumors: Mice were randomized into nine groups of five mice each—(i) Control isotype IgG1 15 mg/kg, (ii) Control isotype IgG1 15 mg/kg and 5 mg/kg of paclitaxel, (iii) Control isotype IgG1 15 mg/kg and 20 mg/kg of paclitaxel, (iv) BisP1.1 15 mg/kg, (v) BisP1.1 15 mg/kg and 5 mg/kg of paclitaxel, (vi) BisP1.1 15 mg/kg and 20 mg/kg of paclitaxel (vii) Valspodar 20 mg/kg (viii) Valspodar 20 mg/kg and 5 mg/kg of paclitaxel and (ix) Valspodar 20 mg/kg and […]. Antibody, Valspodar and paclitaxel were dosed intraperitoneally twice a week for four consecutive weeks. Antibody/valspodar were injected at least 4 hours prior to paclitaxel injection. Paclitaxel preparation: Since paclitaxel is poorly soluble, a master stock of 50 mg/ml was prepared in absolute ethanol:Kolliphor (1:1). Prior to injection the stock was diluted to recommended doses of 5 mg/kg or 20 mg/kg with PBS maintaining a ratio of (1:16).
Measurements: Tumor measurements were done thrice a week using a calibrated Vernier Caliper and tumor volume calculated as per the formula ½*L*S*S where L is the long axis and s is the short axis of the tumor. Body weights were recorded before treatment started and were continuously monitored throughout the study. Animal survival was evaluated from the first day of treatment until death. To avoid suffering, mice were euthanized when turning moribund according to the above-mentioned predefined criteria: rapid weight loss, loss of ability to ambulate, labored respiration, or inability to drink or feed.
Statistics: Tumor volume and body weights were compared between different experimental groups using exact one-way analysis of variance (ANOVA). Kaplan-Meier survival curves were compared between different treatment groups using the log-rank (Mantel-Cox) test. Statistical analyses were performed using Graph Pad Prism (GraphPad, San Diego, CA, USA) software. The level of significance was set at p<0.05 for all analyses.

[1] = tested on: 293 KT14-KO and KPB1-KD cells; experiment: FACS binding to cells with only one target present; design: species or system human; conditions: CD47 knock-out or Pgp knock-down 293T cells, FIG. 4
Method: (§1) In FIG. 4A-4B, the binding of the bispecific antibody is shown by FACS analysis against a variety of cell lines. The first scan (left panel in FIG. 4A and FIG. 4B) illustrates binding of the antibody to cells co-expressing both targets, (Pgp and CD47). […] FIG. 4A-4B further show binding with titrated antibody concentrations of 600 nM, 200 nM, 66 nM, 7.4 nM and 2 nM, with the signal measured from isotype and no antibody control also provided. The respective antibody concentrations are indicated in the left panel of FIG. 4A and FIG. 4B, and the measured signal from these different concentrations are generally overlapping in the middle and right panels of FIGS. 4A and 4B. FIG. 4A and FIG. 4B represent results obtained from two different batches of antibody.

A2780ADR cells = experiment: A2780ADR subcutaneous tumors in mice; type: in vivo
Method: A2780ADR MDR cancer cell line and HeyT30 MDR cancer cell line were injected into mice according to protocols described in Example 3. Mice were treated with BisP1.1 bispecific antibody with or without paclitaxel.
Cells: A2780ADR cell line (Sigma, catalogue no 93112520) is an epithelial ovarian carcinoma, derived from parent A2780 cell line (Sigma, catalogue no 93112519), was used in this study.
Mice: 5-6-weeks-old female nude mice (Charles River) were used in this study.
All animal maintenance, handling, surveillance, and animal procedures were performed in accordance with and approval from the APLAC protocol.
A2780ADR subcutaneous tumors: Mice were randomized into six groups of five mice each—(i) Control isotype IgG1 3 mg/kg, (ii) Control isotype IgG1 3 mg/kg and 20 mg/kg of paclitaxel, (iii) KNJYBisP1.1 3 mg/kg, (iv) KNJYBisP1.1 3 mg/kg and 20 mg/kg of paclitaxel, (v) KNJYBisP1.1 N297A 3 mg/kg and (vi) KNJYBisP1.1 N297A 3 mg/kg and 20 mg/kg of paclitaxel. Antibody and paclitaxel were dosed intraperitoneally twice a week for two consecutive weeks.
A2780ADR subcutaneous tumors: Once tumors reached 100-150 mm^3, mice were randomized into ten groups of five mice each—(i) Control isotype IgG1 3 mg/kg, (ii) Control isotype IgG1 3 mg/kg and 20 mg/kg of paclitaxel, (iii) KNJYBisP1.1 3 mg/kg, (iv) KNJYBisP1.1 3 mg/kg and 20 mg/kg of paclitaxel, (v) 15D3 hybridoma monoclonal Ab 3 mg/kg, (vi) 15D3 hybridoma 3 mg/kg and 20 mg/kg of paclitaxel, (vii) KT14/KT14 monoclonal Ab 3 mg/kg, (viii) KT14/KT14 monoclonal Ab 3 mg/kg and 20 mg/kg of paclitaxel, (ix) 15D3 hybridoma+KT14/KT14, 1.5 mg each and (x) 15D3 hybridoma+KT14/KT14, 1.5 mg each and 20 mg/kg of paclitaxel. Antibodies and paclitaxel were dosed intraperitoneally twice a week for two consecutive weeks.

[2] = tested on: human red blood cells (RBCs); experiment: Binding to human erythrocytes; conditions: FIG. 22A; in contrast to anti-CD47 5F9
[3] = tested on: multidrug resistant N6ADR cells; experiment: N6ADR tumors in mice (Example 5); type: in vivo
Method: Tumors formed by injecting multidrug resistant N6ADR cells in mice were treated by administering the anti-MDR1 antibody 15D3, with or without paclitaxel or administering KbisP1.1 with or without paclitaxel.

293T naïve cells = experiment: FACS binding to cells co-expressing Pgp and CD47; design: species or system human; conditions: FIG. 4
Method: as §1

KBisP1.1: bispecific anti-MDR1/anti-CD47 antibody: 15D3 heavy chain, 5F9 (KT14) heavy chain, common MRK16 light chain, human IgG1
tumor growth, agent alone (NALM6 ADR cells; 15 mg/kg i.p. twice a week): strong inhibition of tumor growth
tumor growth in combination with paclitaxel (NALM6 ADR cells; BisP1.1 15 mg/kg or valspodar 20 mg/kg with paclitaxel 5 or 20 mg/kg): significantly reduced tumor growth
survival (NALM6 ADR cells; valspodar with paclitaxel 20 mg/kg, BisP1.1 alone or plus paclitaxel, compared to control): prolonged survival
FACS binding when only one of the targets is present [1]: does not show significant binding
FACS binding when only one of the targets is present ([1]; listed as HC-15D3:HC-5F9:LC-MRK16): significantly reduced binding
chemosensitizing effect compared with monospecific antibodies (A2780ADR cells; 3 mg/kg with paclitaxel 20 mg/kg, FIG. 28): stronger compared to either the anti-MDR1 15D3 hybridoma antibody or anti-CD47 KT14 monoclonal antibody
tumor volume (A2780ADR cells; Example 4, with or without paclitaxel, FIG. 18): efficacious in reducing A2780ADR MDR cancer cell tumor volume with or without paclitaxel
chemosensitization of A2780ADR tumors to paclitaxel (A2780ADR cells; antibody 3 mg/kg, paclitaxel 20 mg/kg): chemosensitizes
binding to human erythrocytes [2]: no significant binding
chemo-sensitization of N6ADR tumor to paclitaxel ([3]; FIG. 21): dose-dependent
efficacy against N6ADR cell tumors ([3]; with or without paclitaxel, FIG. 20): more efficacious than the 15D3 antibody
FACS binding when both targets are co-expressed (293T naïve cells): specific binding

From US12331121B2, “Efflux pump-cancer antigen multi-specific antibodies and compositions, reagents, kits and methods related thereto” (William Robert Arathoon Living Trust Dated August 29, 2016, priority 2019, dated 2025)
